For assay [1], the system named is DNA repair reporter vectors. Nature of the assay: HCR of DNA repair reporter vectors treated with Cisplatin. Particulars: reporter vectors treated with Cisplatin before transfection; effect more pronounced in XPA and XPF deficient cells. In kind it is cell-based.
In another assay the target is T1, MGMT (Homo sapiens, UniProt P16455).
T1 construct: expressed in transfected cells; host or cells: TK6 lymphoblastoid cells (MGMT-deficient) complemented with MGMT (TK6+MGMT)
T1 sequence (P16455 1-207): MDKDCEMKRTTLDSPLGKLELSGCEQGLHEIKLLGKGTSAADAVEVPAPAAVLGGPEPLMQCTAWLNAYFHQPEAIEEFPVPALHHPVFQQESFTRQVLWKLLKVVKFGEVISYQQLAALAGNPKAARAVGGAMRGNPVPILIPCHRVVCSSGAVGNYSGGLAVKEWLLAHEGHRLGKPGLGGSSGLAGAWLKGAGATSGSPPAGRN
Nature of the assay: O^6Methylguanine HCR (mPlum:T208C reporter), MGMT dependence of signal. In kind it is cell-based. Particulars: TK6+MGMT cells incubated with compound before and after transfection. The procedure: FIG. 46 is a bar graph showing that the lack of signal is MGMT dependent. BnG stands for O^6-benzylguanine, which inhibits MGMT.
FIG. 44 is an illustration providing an assay for O^6Methylguanine HCR. An […] in fluorescence is expected when the reporter plasmid containing the mPlum:T208C mutation is treated with an agent that induces O^6MeG.
FIG. 46 is a bar graph showing that the lack of signal is MGMT dependent. Reporter expression has been normalized to that for TK6. As expected, the highest reporter expression is observed in MGMT deficient cells.

The test system of assay [2] is fluorescent reporter plasmid DNA. Nature of the assay: HCR of plasmids containing etheno lesions induced by CAA. The conditions noted are these: plasmids treated with CAA; lymphoblastoid cell lines. Format: cell-based, Human. The text has this:
Dose and cell line dependent inhibition of transcription in plasmids treated with CAA is shown at right.

`N.N.[Cl][Pt][Cl]` [Cisplatin]: in assay [1], the fluorescent reporter expression result is on record as “suppresses florescent reporter expression in a dose dependent manner”.

For `Nc1nc(OCc2ccccc2)c2nc[nH]c2n1` [O^6Benzylguanine, O^6-benzylguanine], the “reporter expression normalized to TK6” value on MGMT is on record as “elevated reporter expression similar to that of the MGMT deficient TK6 cells”. As for `O=CCCl` [chloroacetaldehyde], the fluorescent reporter expression entry in assay [2] is reported as “dose-dependent decrease in fluorescent reporter expression”.

The record behind these values is patent publication US9938587B2 (priority 2011, dated 2018).
